According to patent publication US11230540B2, “Substituted triazole derivatives and uses thereof” (Bayer Pharma Aktiengesellschaft, priority 2017, dated 2022):
pIC50: −log10 of the molar value. Counter-ions that a name gives are not always drawn.

Assays:
human V1a receptor = molecular target: T1, human V1a receptor (Homo sapiens, UniProt P37288); test: Cellular in vitro assay for vasopressin receptor activity, V1a receptor cell line (aequorin luminescence); assay type: cell-based; details: for pIC50: CHO cell line transfected with human V1a receptor, [Arg8]-vasopressin at EC50 concentration, read-out: IC50 hV1a; for ratio IC50 hV2/hV1a: selectivity ratio of the IC50 values hV2/hV1a
T1 construct: expressed in transfected cells; host or cells: CHO K1 (Chinese hamster ovary), also stably transfected with a modified aequorin
T1 sequence (P37288 whole entry): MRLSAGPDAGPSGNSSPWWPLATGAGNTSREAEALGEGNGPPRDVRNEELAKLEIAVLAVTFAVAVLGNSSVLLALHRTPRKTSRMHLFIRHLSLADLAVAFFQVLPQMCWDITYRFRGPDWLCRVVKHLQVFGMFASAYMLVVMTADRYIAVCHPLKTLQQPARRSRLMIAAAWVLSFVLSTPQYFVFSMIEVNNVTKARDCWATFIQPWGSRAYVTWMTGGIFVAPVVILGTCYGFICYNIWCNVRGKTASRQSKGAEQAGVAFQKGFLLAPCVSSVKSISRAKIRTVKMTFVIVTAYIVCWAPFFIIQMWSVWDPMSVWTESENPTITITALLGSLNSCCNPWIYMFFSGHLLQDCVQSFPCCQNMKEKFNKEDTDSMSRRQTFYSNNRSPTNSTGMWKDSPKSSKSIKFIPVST
Experimental: (§1) B-1. Cellular In Vitro Assay for Determining Vasopressin Receptor Activity
(§2) The identification of agonists and antagonists of the V1a and V2 vasopressin receptors from humans, rats and dogs as well as the quantification of the activity of the compounds of the invention is carried out using recombinant cell lines. These cell lines originally derive from a hamster's ovary epithelial cell (Chinese Hamster Ovary, CHO K1, ATCC: American Type Culture Collection, Manassas, Va. 20108, USA). The test cell lines constitutively express the human, rat or dog V1a or V2 receptors. In case of the […] V1a receptors, cells are also stably transfected with a modified form of the calcium-sensitive photoproteins aequorin (human and rat V1a) or obelin (dog V1a), which, after reconstitution with the cofactor coelenterazine, emit light when there are increases in free calcium concentrations [Rizzuto R, Simpson A W, Brini M, Pozzan T, Nature 358, 325-327 (1992); Illarionov B A, Bondar V S, Illarionova V A, Vysotski E S, Gene 153 (2), 273-274 (1995)]. The resulting vasopressin receptor cells react to stimulation of the recombinantly expressed V1a receptors by intracellular release of calcium ions, which can be quantified by the resulting photoprotein luminescence. The Gs-coupled V2 receptors are stably transfected into cell lines expressing the gene for firefly luciferase under control of a CRE-responsible promoter. Activation of V2 receptors induces the activation of the CRE-responsive promoter via cAMP increase, thereby inducing the expression of firefly luciferase. The light emitted by photoproteins of V1a cell lines as well as the light emitted by firefly luciferase of V2 cell lines corresponds to the activation or inhibition of the respective vasopressin receptor. The bioluminescence of the cell lines is detected using a suitable luminometer [Milligan G, Marshall F, Rees S, Trends in Pharmacological Sciences 17, 235-237 (1996)].
Vasopressin V1a Receptor Cell Lines:
On the day before the assay, the cells are plated out in culture medium (DMEM/F12, 2% FCS, 2 mM glutamine, 10 mM HEPES, 5 μg/ml coelenterazine) in 384-well microtiter plates and kept in a cell incubator (96% humidity, 5% v/v CO2, 37° C.). On the day of the assay, test compounds in various concentrations are placed for 10 minutes in the wells of the microtiter plate before the agonist [Arg^8]-vasopressin at EC50 concentration is added. The resulting light signal is measured immediately in a luminometer.
(§3) Table 1A below lists individual IC50 values for the compounds of the invention (including racemic mixtures as well as separated enantiomers) that were obtained from cell lines transfected with the human V1a or V2 receptor: […]

human V2 receptor = molecular target: T2, human V2 receptor (Homo sapiens, UniProt P30518); test: Cellular in vitro assay for vasopressin receptor activity, V2 receptor cell line (CRE-luciferase); assay type: cell-based; details: CHO cell line transfected with human V2 receptor; [Arg8]-vasopressin at EC50 concentration; read-out: IC50 hV2
T2 construct: expressed in transfected cells; host or cells: CHO K1 (Chinese hamster ovary) expressing firefly luciferase under a CRE-responsive promoter
T2 sequence (P30518 whole entry): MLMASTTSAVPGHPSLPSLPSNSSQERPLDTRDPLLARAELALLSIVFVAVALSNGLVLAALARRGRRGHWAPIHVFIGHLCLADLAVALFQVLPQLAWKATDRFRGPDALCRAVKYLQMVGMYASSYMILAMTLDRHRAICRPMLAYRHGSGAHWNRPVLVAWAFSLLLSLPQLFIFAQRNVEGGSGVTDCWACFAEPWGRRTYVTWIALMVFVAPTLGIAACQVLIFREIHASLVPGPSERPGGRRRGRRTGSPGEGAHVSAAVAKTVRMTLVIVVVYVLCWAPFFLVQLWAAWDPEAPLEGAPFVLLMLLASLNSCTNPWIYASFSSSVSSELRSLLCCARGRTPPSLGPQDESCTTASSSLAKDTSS
Experimental: as §1, §2
Vasopressin V2 Receptor Cell Lines:
On the day before the assay, the cells are plated out in culture medium (DMEM/F12, 2% FCS, 2 mM glutamine, 10 mM HEPES) in 384-well microtiter plates and kept in a cell incubator (96% humidity, 5% v/v CO2, 37° C.). On the day of the assay, test compounds in various concentrations and the agonist [Arg^8]-vasopressin at EC50 concentration are added together to the wells, and plates are incubated for 3 hours in a cell incubator. Upon addition of the cell lysis reagent Triton™ and the substrate luciferin, luminescence of firefly luciferase is measured in a luminometer.
as §3

Row | Compound | pIC50 (human V1a receptor) | ratio IC50 hV2/hV1a (human V1a receptor) | pIC50 (human V2 receptor)
1 | O=C(c1nc(Cn2nc(-c3ccc(Cl)cc3)n(C[C@H](O)C(F)(F)F)c2=O)nn1-c1ncccc1C(F)(F)F)N1CC(O)(C(F)(F)F)C1 [Example 58, 5-(4-Chlorophenyl)-2-({5-[3-hydroxy-3-(trifluoromethyl)azetidine-1-carbonyl]-1-[3-(trifluoromethyl)pyridin-2-yl]-1H-1,2,4-triazol-3-yl}methyl)-4-[(2S)-3,3,3-trifluoro-2-hydroxypropyl]-2,4-dihydro-3H-1,2,4-triazol-3-one] | 8.87 | 322.2 | 6.36
2 | O=C(c1nc(Cn2nc(-c3ccc(Cl)cc3)n(C[C@H](O)C(F)(F)F)c2=O)nn1-c1cccc(F)c1)N1CCNCC1 [Example 41, 5-(4-Chlorophenyl)-2-{[1-(3-fluorophenyl)-5-(piperazin-1-ylcarbonyl)-1H-1,2,4-triazol-3-yl]methyl}-4-[(2S)-3,3,3-trifluoro-2-hydroxypropyl]-2,4-dihydro-3H-1,2,4-triazol-3-one trifluoroacetate] | 7.72 | 7.4 | 6.85
3 | O=C(c1nc(Cn2nc(-c3ccc(Cl)cc3)n(C[C@H](O)C(F)(F)F)c2=O)nn1CCC(F)(F)F)N1CCOCC1 [Example 26, 5-(4-Chlorophenyl)-2-{[5-(morpholin-4-ylcarbonyl)-1-(3,3,3-trifluoropropyl)-1H-1,2,4-triazol-3-yl]methyl}-4-[(2S)-3,3,3-trifluoro-2-hydroxypropyl]-2,4-dihydro-3H-1,2,4-triazol-3-one] | 7.12 | – | 6.14

Second part, the compound after the results:

Row | pIC50 (human V1a receptor) | ratio IC50 hV2/hV1a (human V1a receptor) | pIC50 (human V2 receptor) | Compound
4 | 7.87 | 4.7 | 7.19 | O=C(NCC(F)(F)F)c1nc(Cn2nc(-c3ccc(Cl)cc3)n(C[C@H](O)C(F)(F)F)c2=O)nn1-c1cccnc1Cl [Example 18, 3-({3-(4-Chlorophenyl)-5-oxo-4-[(2S)-3,3,3-trifluoro-2-hydroxypropyl]-4,5-dihydro-1H-1,2,4-triazol-1-yl}methyl)-1-(2-chloropyridin-3-yl)-N-(2,2,2-trifluoroethyl)-1H-1,2,4-triazole-5-carboxamide]
5 | 9.19 | 98.4 | 7.20 | CC1(CNC(=O)c2nc(Cn3nc(-c4ccc(Cl)cc4)n(C[C@H](O)C(F)(F)F)c3=O)nn2-c2ncccc2C(F)(F)F)COC1 [Example 53, 3-({3-(4-Chlorophenyl)-5-oxo-4-[(2S)-3,3,3-trifluoro-2-hydroxypropyl]-4,5-dihydro-1H-1,2,4-triazol-1-yl}methyl)-N-[(3-methyloxetan-3-yl)methyl]-1-[3-(trifluoromethyl)pyridin-2-yl]-1H1,2,4-triazole-5-carboxamide]
6 | 8.02 | 1.2 | 7.95 | O=C(NCC(F)(F)F)c1nc(Cn2nc(-c3ccc(Cl)cc3)n(C[C@H](O)C(F)(F)F)c2=O)nn1-c1cccc(F)c1 [Example 38, 3-({3-(4-Chlorophenyl)-5-oxo-4-[(2S)-3,3,3-trifluoro-2-hydroxypropyl]-4,5-dihydro-1H-1,2,4-triazol-1-yl}methyl)-1-(3-fluorophenyl)-N-(2,2,2-trifluoroethyl)-1H-1,2,4-triazole-5-carboxamide]
7 | 8.16 | 14.9 | 6.99 | COc1cccnc1-n1nc(Cn2nc(-c3ccc(Cl)cc3)n(C[C@H](O)C(F)(F)F)c2=O)nc1C(=O)NCC(C)(C)N [Example 20, N-(2-Amino-2-methylpropyl)-3-({3-(4-chlorophenyl)-5-oxo-4-[(2S)-3,3,3-trifluoro-2-hydroxypropyl]-4,5-dihydro-1H-1,2,4-triazol-1-yl}methyl)-1-(3-methoxypyridin-2-yl)-1H-1,2,4-triazole-5-carboxamide]
